The record followed here is patent publication US12497365B2, “4-pyridinyl formamide compound or derivative thereof, preparation method therefor, herbicidal composition and use thereof” (Qingdao Kingagroot Chemical Compound Co., Ltd., priority 2019, dated 2025).

Assay in all cases: Weeding effect in post-emergence stage
Common to all, as to format: in vivo
Conditions in all cases: active ingredient 2000 g/ha, 3 weeks after application, fresh weight control rate

One experiment concerns Abutilon theophrasti. The method, boiled down:
(§1)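 Greenhouse post-emergence test: 2-3 leaf plants sprayed at 125-2000 g/ha, then fresh weight control rate scored at 3 weeks.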

Experiment [1] deals with Amaranthus retroflexus L. The method, boiled down:
as §1

A further experiment has as its system Chenopodium album. The method, boiled down: as §1
A further experiment has as its system Descurainia sophia. Put shortly:
as §1

On to `Cc1conc1NC(=O)c1ccnc(-c2ccc(F)cc2)c1Cl` [Compound 1-1577], for which, in the experiment on Abutilon theophrasti, the “Weeding effect, activity level (growth control rate), Abutilon theophrasti” value (shortened to “Weeding effect … Abutilon theophrasti”) is listed as 5 (Level 5: growth control rate is above 85%). The “Weeding effect, activity level (growth control rate), Amaranthus retroflexus L.” value (“Weeding effect … Amaranthus retroflexus L.” for short) in experiment [1] is 5 (Level 5: growth control rate is above 85%). Also, the “Weeding effect, activity level (growth control rate), Chenopodium album” value (“Weeding effect … Chenopodium album” for short) in the experiment on Chenopodium album is reported as 5 (Level 5: growth control rate is above 85%). Besides, in the experiment on Descurainia sophia, the “Weeding effect, activity level (growth control rate), Descurainia sophia” value (“Weeding effect … Descurainia sophia” for short) is listed as 5 (Level 5: growth control rate is above 85%).
For `O=C(Nc1ncco1)c1ccnc(-c2ccc(F)cc2)c1Cl` [Compound 1-1607], in the experiment on Abutilon theophrasti, the “Weeding effect … Abutilon theophrasti” value was 5 (Level 5: growth control rate is above 85%). In experiment [1], the “Weeding effect … Amaranthus retroflexus L.” value is on record as 5 (Level 5: growth control rate is above 85%). Further, the “Weeding effect … Chenopodium album” value with Chenopodium album is recorded as 5 (Level 5: growth control rate is above 85%). In addition, the “Weeding effect … Descurainia sophia” value in the experiment on Descurainia sophia is 5 (Level 5: growth control rate is above 85%).
For the compound `C=Cc1ccc(-c2nccc(C(=O)Nc3nnnn3C)c2Cl)cc1` [Compound 1-1918], the “Weeding effect … Abutilon theophrasti” value with Abutilon theophrasti is given as 5 (Level 5: growth control rate is above 85%). Besides, in experiment [1], the “Weeding effect … Amaranthus retroflexus L.” value is recorded as 5 (Level 5: growth control rate is above 85%). Further, the “Weeding effect … Chenopodium album” value in the experiment with Chenopodium album was 5 (Level 5: growth control rate is above 85%). Moreover, in the experiment with Descurainia sophia, the “Weeding effect … Descurainia sophia” value is listed as 5 (Level 5: growth control rate is above 85%).
Take `CN(C)C(=O)c1ccc(-c2nccc(C(=O)Nc3nnnn3C)c2Cl)cc1` [Compound 1-1925]: the “Weeding effect … Abutilon theophrasti” value in the experiment with Abutilon theophrasti is 5 (Level 5: growth control rate is above 85%). The “Weeding effect … Amaranthus retroflexus L.” value in experiment [1] is recorded as 5 (Level 5: growth control rate is above 85%). Moreover, the “Weeding effect … Chenopodium album” value in the experiment on Chenopodium album was 5 (Level 5: growth control rate is above 85%). In addition, the “Weeding effect … Descurainia sophia” value in the experiment on Descurainia sophia is given as 5 (Level 5: growth control rate is above 85%).
With `Cn1nnnc1NC(=O)c1ccnc(-c2cccc3c2OC(F)(F)O3)c1Cl` [Compound 1-1972], in the experiment on Abutilon theophrasti, the “Weeding effect … Abutilon theophrasti” value is recorded as 5 (Level 5: growth control rate is above 85%). For the same compound, in experiment [1], the “Weeding effect … Amaranthus retroflexus L.” value is 5 (Level 5: growth control rate is above 85%). In addition, in the experiment on Chenopodium album, the “Weeding effect … Chenopodium album” value is recorded as 5 (Level 5: growth control rate is above 85%). Moreover, the “Weeding effect … Descurainia sophia” value with Descurainia sophia was 5 (Level 5: growth control rate is above 85%).
With `Cn1nnnc1NC(=O)c1ccnc(-c2ccc(CNC(=O)OC(C)(C)C)s2)c1Cl` [Compound 1-2004], the “Weeding effect … Abutilon theophrasti” value with Abutilon theophrasti is on record as 5 (Level 5: growth control rate is above 85%). For the same compound, in experiment [1], the “Weeding effect … Amaranthus retroflexus L.” value is recorded as 5 (Level 5: growth control rate is above 85%). The “Weeding effect … Chenopodium album” value in the experiment with Chenopodium album is reported as 5 (Level 5: growth control rate is above 85%). Further, the “Weeding effect … Descurainia sophia” value with Descurainia sophia is on record as 5 (Level 5: growth control rate is above 85%).
Take `Cn1nnnc1NC(=O)c1ccnc(-c2ccc[nH]2)c1Cl` [Compound 1-2006]: the “Weeding effect … Abutilon theophrasti” value with Abutilon theophrasti is given as 5 (Level 5: growth control rate is above 85%). The “Weeding effect … Amaranthus retroflexus L.” value in experiment [1] was 5 (Level 5: growth control rate is above 85%). Further, the “Weeding effect … Chenopodium album” value in the experiment with Chenopodium album is on record as 5 (Level 5: growth control rate is above 85%). The “Weeding effect … Descurainia sophia” value in the experiment with Descurainia sophia is given as 5 (Level 5: growth control rate is above 85%).
Consider `Cn1nnnc1NC(=O)c1ccnc(-c2cc3ccccc3o2)c1Cl` [Compound 1-2010], for which the “Weeding effect … Abutilon theophrasti” value in the experiment with Abutilon theophrasti was 5 (Level 5: growth control rate is above 85%). Besides, the “Weeding effect … Amaranthus retroflexus L.” value in experiment [1] was 5 (Level 5: growth control rate is above 85%). Moreover, the “Weeding effect … Chenopodium album” value with Chenopodium album is recorded as 5 (Level 5: growth control rate is above 85%). In addition, the “Weeding effect … Descurainia sophia” value in the experiment with Descurainia sophia is 5 (Level 5: growth control rate is above 85%).
With `Cn1nnnc1NC(=O)c1ccnc(-c2ccc(C#N)cc2)c1F` [Compound 1-2016], the “Weeding effect … Abutilon theophrasti” value in the experiment with Abutilon theophrasti is reported as 5 (Level 5: growth control rate is above 85%). Further, the “Weeding effect … Amaranthus retroflexus L.” value in experiment [1] was 5 (Level 5: growth control rate is above 85%). In addition, in the experiment with Chenopodium album, the “Weeding effect … Chenopodium album” value was 5 (Level 5: growth control rate is above 85%). Also, in the experiment on Descurainia sophia, the “Weeding effect … Descurainia sophia” value was 5 (Level 5: growth control rate is above 85%).
On to `COc1c(C(=O)Nc2nnnn2C)ccnc1-c1ccc(C#N)cc1` [Compound 1-2029], for which the “Weeding effect … Abutilon theophrasti” value with Abutilon theophrasti is reported as 5 (Level 5: growth control rate is above 85%). In experiment [1], the “Weeding effect … Amaranthus retroflexus L.” value is given as 5 (Level 5: growth control rate is above 85%). For the same compound, the “Weeding effect … Chenopodium album” value in the experiment with Chenopodium album is on record as 5 (Level 5: growth control rate is above 85%). Moreover, the “Weeding effect … Descurainia sophia” value in the experiment on Descurainia sophia is 5 (Level 5: growth control rate is above 85%).
Turning to `CN(C)c1c(C(=O)Nc2nnnn2C)ccnc1-c1ccc(Cl)cc1` [Compound 1-2044], the “Weeding effect … Abutilon theophrasti” value in the experiment with Abutilon theophrasti is given as 5 (Level 5: growth control rate is above 85%). For the same compound, the “Weeding effect … Amaranthus retroflexus L.” value in experiment [1] is reported as 5 (Level 5: growth control rate is above 85%). Besides, the “Weeding effect … Chenopodium album” value in the experiment with Chenopodium album is listed as 5 (Level 5: growth control rate is above 85%). The “Weeding effect … Descurainia sophia” value with Descurainia sophia is given as 5 (Level 5: growth control rate is above 85%).
For the compound `CSc1c(C(=O)Nc2nnnn2C)ccnc1-c1ccc(C#N)cc1` [Compound 1-2052], the “Weeding effect … Abutilon theophrasti” value with Abutilon theophrasti is 5 (Level 5: growth control rate is above 85%). Moreover, the “Weeding effect … Amaranthus retroflexus L.” value in experiment [1] is recorded as 5 (Level 5: growth control rate is above 85%). Moreover, the “Weeding effect … Chenopodium album” value with Chenopodium album is on record as 5 (Level 5: growth control rate is above 85%). Also, in the experiment with Descurainia sophia, the “Weeding effect … Descurainia sophia” value is on record as 5 (Level 5: growth control rate is above 85%).
As for `CSc1c(C(=O)Nc2nnnn2C)ccnc1-c1ccc(C(N)=O)cc1` [Compound 1-2053], in the experiment with Abutilon theophrasti, the “Weeding effect … Abutilon theophrasti” value is recorded as 5 (Level 5: growth control rate is above 85%). The “Weeding effect … Amaranthus retroflexus L.” value in experiment [1] is on record as 5 (Level 5: growth control rate is above 85%). In addition, the “Weeding effect … Chenopodium album” value with Chenopodium album is 5 (Level 5: growth control rate is above 85%). In the experiment on Descurainia sophia, the “Weeding effect … Descurainia sophia” value is reported as 5 (Level 5: growth control rate is above 85%).
Consider `COc1nccc(C(=O)Nc2nnnn2C)c1Cl` [Compound 1-2061], for which the “Weeding effect … Abutilon theophrasti” value with Abutilon theophrasti is 5 (Level 5: growth control rate is above 85%). For the same compound, in experiment [1], the “Weeding effect … Amaranthus retroflexus L.” value is given as 5 (Level 5: growth control rate is above 85%). In addition, the “Weeding effect … Chenopodium album” value in the experiment on Chenopodium album is on record as 5 (Level 5: growth control rate is above 85%). Further, in the experiment with Descurainia sophia, the “Weeding effect … Descurainia sophia” value was 5 (Level 5: growth control rate is above 85%).
Turning to `Cn1nnnc1NC(=O)c1ccnc(OCC(F)(F)F)c1Cl` [Compound 1-2062], the “Weeding effect … Abutilon theophrasti” value in the experiment with Abutilon theophrasti was 5 (Level 5: growth control rate is above 85%). Besides, the “Weeding effect … Amaranthus retroflexus L.” value in experiment [1] is 5 (Level 5: growth control rate is above 85%). Besides, the “Weeding effect … Chenopodium album” value in the experiment with Chenopodium album is given as 5 (Level 5: growth control rate is above 85%). Also, the “Weeding effect … Descurainia sophia” value in the experiment with Descurainia sophia was 5 (Level 5: growth control rate is above 85%).
For `Cn1nnnc1NC(=O)c1ccnc(Oc2ccccc2)c1Cl` [Compound 1-2063], the “Weeding effect … Abutilon theophrasti” value in the experiment with Abutilon theophrasti is reported as 5 (Level 5: growth control rate is above 85%). For the same compound, the “Weeding effect … Amaranthus retroflexus L.” value in experiment [1] was 5 (Level 5: growth control rate is above 85%). For the same compound, the “Weeding effect … Chenopodium album” value in the experiment with Chenopodium album is recorded as 5 (Level 5: growth control rate is above 85%). Further, in the experiment with Descurainia sophia, the “Weeding effect … Descurainia sophia” value is reported as 5 (Level 5: growth control rate is above 85%).
Turning to `Cn1nnnc1NC(=O)c1ccnc(OCc2ccccc2)c1Cl` [Compound 1-2064], in the experiment on Abutilon theophrasti, the “Weeding effect … Abutilon theophrasti” value is 5 (Level 5: growth control rate is above 85%). In experiment [1], the “Weeding effect … Amaranthus retroflexus L.” value is 5 (Level 5: growth control rate is above 85%). In the experiment with Chenopodium album, the “Weeding effect … Chenopodium album” value was 5 (Level 5: growth control rate is above 85%). Besides, in the experiment on Descurainia sophia, the “Weeding effect … Descurainia sophia” value is 5 (Level 5: growth control rate is above 85%).
Regarding `CSc1nccc(C(=O)Nc2nnnn2C)c1Cl` [Compound 1-2065], the “Weeding effect … Abutilon theophrasti” value in the experiment on Abutilon theophrasti is 5 (Level 5: growth control rate is above 85%). Further, the “Weeding effect … Amaranthus retroflexus L.” value in experiment [1] was 5 (Level 5: growth control rate is above 85%). Moreover, the “Weeding effect … Chenopodium album” value with Chenopodium album was 5 (Level 5: growth control rate is above 85%). Moreover, the “Weeding effect … Descurainia sophia” value in the experiment on Descurainia sophia is 5 (Level 5: growth control rate is above 85%).
For the compound `COc1ccc(CSc2nccc(C(=O)Nc3nnnn3C)c2Cl)cc1` [Compound 1-2069], in the experiment with Abutilon theophrasti, the “Weeding effect … Abutilon theophrasti” value is 5 (Level 5: growth control rate is above 85%). In experiment [1], the “Weeding effect … Amaranthus retroflexus L.” value is listed as 5 (Level 5: growth control rate is above 85%). In addition, the “Weeding effect … Chenopodium album” value in the experiment with Chenopodium album is listed as 5 (Level 5: growth control rate is above 85%). For the same compound, in the experiment with Descurainia sophia, the “Weeding effect … Descurainia sophia” value is recorded as 5 (Level 5: growth control rate is above 85%).
